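Each compound was tested at five concentrations against cells in 96-well plates for 48 hours. TGI: concentration producing complete growth inhibition.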

The source of these data is PubChem BioAssay (NCI).

Test systems include MDA-MB-231 breast; SW-620 colon; NCI-H23 lung; ACHN renal; SK-MEL-5 melanoma; A498 renal; RPMI-8226 leukemia; BT-549 breast; MDA-N; K-562 leukemia; HCC-2998 colon.
Holding throughout (assay): NCI anticancer screen, dose series, 48 h

On to `COc1ccc2c(c1)c(=O)c1c(NCCCN(C)CCCNc3ccc4c(=O)n(CCN(C)C)c(=O)n5c6ccc(OC)cc6c(=O)c3c45)ccc3c(=O)n(CCN(C)C)c(=O)n2c31`, for which the TGI in the test with MDA-MB-231 breast came out at 2.56 µM; in the test on SW-620 colon, 0.752 µM; with NCI-H23 lung, 0.704 µM; in the test with ACHN renal, 1.42 µM; in the test on SK-MEL-5 melanoma it was 0.813 µM; with A498 renal it was 3.39 µM. Further, the TGI in the test with RPMI-8226 leukemia is 0.176 µM; in the test with BT-549 breast, 2.12 µM; in the test with MDA-N, 1.49 µM; in the test with K-562 leukemia, 1.11 µM; with HCC-2998 colon it was 0.544 µM.
In the case of `COc1ccc2c(c1)C1Oc3ccccc3CC1(O)CO2` (stereo not drawn), the TGI with MDA-MB-231 breast, in the test on SW-620 colon, with NCI-H23 lung, with ACHN renal, in the test with SK-MEL-5 melanoma and in the test on A498 renal was more than 100 µM each time. For the same compound, the TGI with RPMI-8226 leukemia, with BT-549 breast, in the test on MDA-N, in the test with K-562 leukemia and in the test on HCC-2998 colon was more than 100 µM each time.
As to `Cc1ccc(S(=O)(=O)Nc2nc3ccccc3c(=O)n2C2CCCCC2)cc1`, the TGI with MDA-MB-231 breast, in the test on SW-620 colon, with NCI-H23 lung, in the test with ACHN renal, in the test with SK-MEL-5 melanoma and with A498 renal was more than 100 µM each time. Besides, the TGI with RPMI-8226 leukemia, with BT-549 breast, with MDA-N, in the test on K-562 leukemia and with HCC-2998 colon was more than 100 µM throughout.
For `NC(Cc1ccccc1)=NCC(=O)O`, the TGI in the test on MDA-MB-231 breast, with SW-620 colon, with NCI-H23 lung, with ACHN renal, in the test on SK-MEL-5 melanoma and in the test on A498 renal was more than 100 µM throughout. Further, the TGI with RPMI-8226 leukemia, in the test on BT-549 breast, with MDA-N, with K-562 leukemia and in the test with HCC-2998 colon was more than 100 µM in each case.
`COc1cc(CCNC2=CC(=O)c3cccnc3C2=O)ccc1O`: the TGI is 2.08 µM in the test on MDA-MB-231 breast; 2.94 µM with SW-620 colon; 4.65 µM in the test on NCI-H23 lung; 5.61 µM in the test on ACHN renal; 1.08 µM in the test with SK-MEL-5 melanoma; 7.6 µM with A498 renal. For the same compound, the TGI is 5.2 µM in the test on RPMI-8226 leukemia; 2.75 µM in the test with BT-549 breast; 0.308 µM with MDA-N; 2.15 µM with K-562 leukemia; 3.58 µM with HCC-2998 colon.
On to `COC(=O)c1ccc(CCC2=CC(=O)C(Br)=CC2=O)cc1`, for which the TGI came to 38.7 µM in the test with MDA-MB-231 breast; 27.1 µM in the test with SW-620 colon; 28.4 µM with NCI-H23 lung; 25.1 µM in the test with ACHN renal; 24.6 µM in the test on SK-MEL-5 melanoma; 36.5 µM in the test with A498 renal. Further, the TGI in the test on RPMI-8226 leukemia amounted to 49.3 µM; in the test with BT-549 breast, 23.9 µM; in the test with MDA-N, 31.4 µM; with K-562 leukemia, 4.84 µM; in the test with HCC-2998 colon it was 29.1 µM.
Take `COc1ccc(/C=C2\Sc3nnc(C)n3N=C2c2cc(F)c(Cl)cc2Cl)cc1OC`: the TGI in the test with MDA-MB-231 breast was 79.8 µM; in the test on SW-620 colon it was more than 100 µM; with NCI-H23 lung, 26.7 µM; in the test with ACHN renal, 27.1 µM; in the test with SK-MEL-5 melanoma, 36.2 µM; in the test with A498 renal, 37.1 µM. Further, the TGI in the test with RPMI-8226 leukemia was 11.1 µM; in the test with BT-549 breast, 34.1 µM; in the test on MDA-N it was 17.6 µM; with K-562 leukemia, 19.5 µM; in the test on HCC-2998 colon, 32.6 µM.
As for `O=c1[nH]nc(-c2ccc([N+](=O)[O-])cc2)n1/N=C/c1ccc([N+](=O)[O-])cc1`, the TGI with MDA-MB-231 breast, in the test on SW-620 colon, in the test with NCI-H23 lung, with ACHN renal, in the test on SK-MEL-5 melanoma and in the test with A498 renal was more than 100 µM each time. Besides, the TGI in the test with RPMI-8226 leukemia, in the test on BT-549 breast, in the test on MDA-N, in the test with K-562 leukemia and in the test on HCC-2998 colon was more than 100 µM in each case.
For `NNC(=Nc1ccccc1)SCc1ccccc1`, the TGI in the test on MDA-MB-231 breast, in the test with SW-620 colon, in the test on NCI-H23 lung, with ACHN renal, with SK-MEL-5 melanoma and in the test with A498 renal was more than 100 µM each time. Moreover, the TGI in the test on RPMI-8226 leukemia, with BT-549 breast, in the test with MDA-N, in the test on K-562 leukemia and in the test on HCC-2998 colon was more than 100 µM in each case.
For the compound `Cc1c(C#N)c2nnn(-c3ccc([N+](=O)[O-])cc3)c(=O)n2c1-c1ccccc1`, the TGI in the test on MDA-MB-231 breast amounted to 34.7 µM; in the test with SW-620 colon it was 51 µM; in the test on NCI-H23 lung it was 18.5 µM; in the test on ACHN renal it was 16.4 µM; in the test with SK-MEL-5 melanoma, 25.2 µM; in the test on A498 renal, 29.5 µM. Moreover, the TGI with RPMI-8226 leukemia is more than 100 µM; with BT-549 breast, 31.8 µM; with MDA-N, 31.3 µM; in the test on K-562 leukemia it was 30.6 µM; in the test with HCC-2998 colon it was 20 µM.
On to `CC(/C=N/N(C)C1=NCCCCN1)=N/N(C)C1=NCCCCN1`, for which the TGI in the test on MDA-MB-231 breast, with SW-620 colon, in the test on NCI-H23 lung, with ACHN renal, in the test on SK-MEL-5 melanoma and with A498 renal was more than 100 µM throughout. The TGI with RPMI-8226 leukemia, in the test with BT-549 breast, in the test with MDA-N, with K-562 leukemia and in the test with HCC-2998 colon was more than 100 µM in each case.
Consider `c1nncn1C12C3C4C5C3C1C5C42` (stereo not drawn), for which the TGI with MDA-MB-231 breast, in the test on SW-620 colon, in the test with NCI-H23 lung, in the test with ACHN renal, in the test with SK-MEL-5 melanoma and in the test on A498 renal was more than 100 µM each time. In addition, the TGI with RPMI-8226 leukemia, in the test on BT-549 breast, in the test with MDA-N, with K-562 leukemia and in the test on HCC-2998 colon was more than 100 µM throughout.
For `Cc1ccc(C(=O)Cc2nc3ncccc3[nH]c2=O)cc1`, the TGI in the test with MDA-MB-231 breast is 60.7 µM; in the test with SW-620 colon, more than 100 µM; in the test on NCI-H23 lung, 42.3 µM; with ACHN renal, 69.3 µM; with SK-MEL-5 melanoma, more than 100 µM; with A498 renal it was more than 100 µM. Moreover, the TGI was more than 100 µM in the test with RPMI-8226 leukemia; 92.5 µM in the test with BT-549 breast; more than 100 µM with MDA-N; more than 100 µM in the test on K-562 leukemia; more than 100 µM in the test with HCC-2998 colon.
